From patent EP0246774A1, “Chemical compounds” (SMITH KLINE & FRENCH LABORATORIES LIMITED, priority 1986, dated 1987)

Test system: histamine stimulated gastric acid secretion
Assay: Rat lumen perfused stomach, histamine stimulated gastric acid secretion (modified Ghosh and Schild procedure)
Format: in vivo
Details: intravenous administration
From the text: A. Rat : Lumen perfused stomach (histamine stimulated gastric acid secretion).
Using a modification of the procedure described by Ghosh and Schild (Br. J. Pharmacology, 13, 54, 1958), ED50 values after intravenous administration were obtained as follows: […]

SMILES | ED50 [µmol/kg]
COc1ccc2[nH]c([S+]([O-])Cc3nccc(N4CCOCC4)c3F)nc2c1 (stereo not shown) [Example 2, 5-methoxy-2-(4-morpholino-3-fluoro-2-pyridylmethylsulphinyl)-(lH)-benzimidazole] | 0.7
COc1cc2[nH]c([S+]([O-])Cc3nccc(N4CCOCC4)c3F)nc2cc1C (stereo not shown) [Example 14, 5-methyl-6-methoxy-2-(4-morpholino-3-fluoro-2-pyridylmethylsulphinyl)-(lH)-benzimidazole] | 1.51

Same assay, conditions: intravenous administration, dose not given

SMILES | % inhibition at µ/kg [%]
COc1ccc2[nH]c([S+]([O-])Cc3cc(N4CCOCC4)c(F)cn3)nc2c1 (stereo not shown) [Example 4, 5-methoxy-2-(4-morpholino-5-fluoro-2-pyridvlmethylsulphinyl)-(lH)-benzimidazole] | 51
COc1ccc2[nH]c([S+]([O-])Cc3nccc(N(C)C)c3F)nc2c1 (stereo not shown) [Example 6, 5-methoxy-2-(4-dimethylamino-3-fluoro-2-pyridylmethylsulphinyl)-(1H)-benzimidazole] | 26
COc1ccc2[nH]c([S+]([O-])Cc3cc(N(C)C)c(F)cn3)nc2c1 (stereo not shown) [Example 8, 5-methoxy-2-(4-dimethylamino-5-fluoro-2-pyridylmethylsulphinyl)-(1H)-benzimidazole] | 37
COc1cc2nc([S+]([O-])Cc3nccc(N4CCOCC4)c3F)[nH]c2cc1OC (stereo not shown) [Example 12, 5,6-dimethoxy-2-(4-morpholino-3-fluoro-2-pyridylmethylsulphinvl)-(lH)-benzimidazole] | 33
COc1cc2nc([S+]([O-])Cc3nccc(N(C)C)c3F)[nH]c2cc1OC (stereo not shown) [Example 16, 5,6-dimethoxy-2-(4-dimethylamino-3-fluoro-2-pyridylmethylsulphinyl)-(lH)-benzimidazole] | 46
